According to PMC5215686 (Journal of medicinal chemistry, 2016):
Values joined by “and” are separate entries in the source; they are usually repeats but may differ in a detail not shown here. Equal entries are not always repeated.

Tests used:
[1] = Plasma and brain exposure after dosing in rats; format: in vivo, Sprague-Dawley rats; details: rat; for Brain concentration of dosed ligand, 120 min / Total Plasma Concentration, 15 min / Total Plasma Concentration, 30 min / Total Plasma Concentration, 60 min / Total Plasma Concentration, 120 min / Brain concentration of dosed ligand, 60 min: p.o. 10 mg/kg; for Brain concentration of dosed ligand, 120 min / Total Plasma Concentration, 15 min / Total Plasma Concentration, 30 min / Total Plasma Concentration, 60 min / Total Plasma Concentration, 120 min: BQL: quantifiable limit < 12.2 nM; for Plasma exposure in words: i.v. (1 mg/kg) or p.o. (10 mg/kg)
HEK293T cells = assay: Cytotoxicity, CellTiter-Glo; format: cell-based, human; details: for Cytotoxicity (18 h) LD50: CellTiter-Glo, n = 4; for Cytotoxicity in words: 18 h, 100 μM
NIH Swiss Webster mice [2] = assay: Rotarod assay; format: in vivo; details: 4 r.p.m., 2 min; for Rotarod motorsensory behavior, 10 mg/kg: i.p. 10 mg/kg
[3] = Rat pharmacokinetics i.v. and i.p., plasma and brain concentrations; format: in vivo, Sprague-Dawley rats
Sprague-Dawley rats = assay: Vogel conflict test; format: in vivo; details: rat
[4] = Solubility by light scattering; format: physicochemical; details: pH=7, by light scattering
NIH Swiss Webster mice [5] = assay: Marble burying assay; format: in vivo

In the case of C#Cc1ccc2c(c1)C(c1ccccn1)=NCc1c(C(=O)O)ncn1-2 [compound 4], the “Brain concentration of dosed ligand, 120 min” value (from here on “Brain concentration … 120 min”) [1] is reported as “(120) BQL ^c”.

In the case of [2H]C([2H])(C)OC(=O)c1ncn2c1CN=C(c1ccccn1)c1cc(C#C)ccc1-2 [compound 5], the “Plasma exposure in words” value [1] is reported as “poor”, the “Total Plasma Concentration, 15 min” value [1] is reported as “BQL ^c” and the “Total Plasma Concentration, 30 min” value [1] is reported as “BQL ^c”. The “Total Plasma Concentration, 60 min” value [1] was “BQL ^c”, the “Brain concentration … 120 min” value [1] was “(120) BQL ^c” and the “Total Plasma Concentration, 120 min” value [1] was “BQL ^c”.

With C#Cc1ccc2c(c1)C(c1ccccc1)=NCc1c(-c3cnco3)ncn1-2 [compound 8] the “Cytotoxicity (18 h) LD50” value (HEK293T cells) was 66.8 µM and 66.8 ± 9 µM.

In the case of C#Cc1ccc2c(c1)C(c1ccccn1)=NCc1c(-c3nc(C)no3)ncn1-2 [compound 6], the Cytotoxicity in words (HEK293T cells) is reported as “non-toxic” and the “Rotarod motorsensory behavior, 10 mg/kg” value (NIH Swiss Webster mice [2]) is reported as “very minor impairment”.

With C#Cc1ccc2c(c1)C(c1ccccc1F)=NCc1c(-c3cnco3)ncn1-2 [compound 10] the “Cytotoxicity (18 h) LD50” value (HEK293T cells) was 61.5 µM and 61.5 ± 10 µM and the “Rotarod motorsensory behavior, 10 mg/kg” value (NIH Swiss Webster mice [2]) was “very minor impairment”.

With C#Cc1ccc2c(c1)C(c1ccccn1)=NCc1c(-c3cnco3)ncn1-2 [compound 9, 5-(8-Ethynyl-6-(pyridin-2-yl)-4H-benzo[f]imidazo[1,5-a][1,4]diazepin-3-yl)oxazole] the Cytotoxicity in words (HEK293T cells) was “non-toxic”, the “Brain concentration of dosed ligand, 60 min” value [1] was “(60) 3640 nM” and the “Rotarod failures, 30 mg/kg” value (NIH Swiss Webster mice [2]; i.p. 30 mg/kg) was “zero failures”. For the same molecule, the “Rotarod performance / ataxia, 30 mg/kg” value (NIH Swiss Webster mice [2]; i.p. 30 mg/kg) was “did not significantly alter rotarod performance compared to vehicle”, the “time of Cmax” value ([3]; 10 mg/kg i.p.) was 2.0 h and the “Unbound Concentration (Cu), Brain” value ([3]; 4 hours after 10 mg/kg i.p., free fraction x total concentration) was 363 nM. For the same molecule, the “Vogel conflict, punished response vs. control, 3 mg/kg” value (Sprague-Dawley rats; 3 mg/kg i.p., 30 min pretreatment) was “no increase in response”, the “Vogel conflict, increase of punished response rate over control, 30 mg/kg” value (Sprague-Dawley rats; 30 mg/kg i.p., 30 min pretreatment) was “about 220%” and the solubility [4] was “good”.

In the case of CNC1=Nc2ccc(Cl)cc2C(c2ccccc2)=[N+]([O-])C1 [CDAP, chlordiazepoxide, reference compound], the “Vogel conflict, response rate in the unpunished session, 20 mg/kg” value (Sprague-Dawley rats; 20 mg/kg i.p.) is reported as “Neither” and the “Vogel conflict, punished response over control, 20 mg/kg” value (Sprague-Dawley rats; 20 mg/kg i.p., P < 0.05) is reported as 330%.

In the case of C#Cc1ccc2c(c1)C(c1ccccn1)=NCc1c(-c3nc(CC)no3)ncn1-2 [compound 7], the Cytotoxicity in words (HEK293T cells) is reported as “non-toxic”, the “Brain concentration of dosed ligand, 60 min” value [1] is reported as “(60) 3090 nM” and the “Marble burying vs. vehicle, 10 mg/kg” value (NIH Swiss Webster mice [5]; i.p. 10 mg/kg, 30 min prior to testing) is reported as “significant reduction”. The “Sedation-like behavior observed in marble burying” value (NIH Swiss Webster mice [5]; i.p. 30 mg/kg) was “weak signs of sedation”.

For C#Cc1ccc2c(c1)C(c1ccccn1)=NCc1c(C(=O)OCC)ncn1-2 [compound 2], the Cytotoxicity in words (HEK293T cells) was “non-toxic”, the “Plasma exposure in words” value [1] was “poor” and the “Total Plasma Concentration, 15 min” value [1] was “BQL ^c”. The “Total Plasma Concentration, 30 min” value [1] was “BQL ^c”, the “Total Plasma Concentration, 60 min” value [1] was “BQL ^c” and the “Brain concentration … 120 min” value [1] was “(120) BQL ^c”. The “Total Plasma Concentration, 120 min” value [1] was “BQL ^c” and the “Vogel conflict, difference from vehicle in words, 30 mg/kg” value (Sprague-Dawley rats; 30 mg/kg i.p.) was “no discernable difference”.
